Laboratory results reported in patent US11053608B2, “Combinatorial derivatives of RNA oligonucleotides” (priority 2017, dated 2021).

Assays:
skin wounds = assay: Wound healing activity; assay type: in vivo, male Vistar white rats
Experimental: The study of the wound healing properties of the compositions was carried out on male Vistar white rats. In 38 animals that were anesthetized with diethyl ether for 2-4 min., A 2 by 2 cm skin area was cut out on the dorsal side of the body, behind the right shoulder blade. The skin was taken with tweezers, it was pulled back, the skin fragment was cut 2 cm in size, wound depth 2 mm, the average area of the wound was 4±1.0 cm^2.
The resulting wounds of a polygonal shape were intensively bleeding. Then the wounds of animals first and second groups (10 in each), D1 and D2 compositions were applied.
The wounds of rats of the 3rd group were treated with Dexpanthenol (DP), the 4th group of 8 animals was the control group, the wounds of these animals were not treated. The compositions in contact with blood formed a gel form, it was covering entire surface of the wound and capture a small fragment of surrounding skin around the wound.
The glue BF-6 was applied on top of the gel, dried and the animals were released into cells.
The planimetric studies of the wounds were carried out from 1st day of experiment on the 3rd, 6th, 9th, 11th, and 13th days, which made it possible to judge the features of reparative processes.
The measurement of the area of the wounds was carried out as follows: on the celluloid film which was covering the wound entirely, contours were applied, after which the area of the wound surface was determined using graph paper.

HeLa-2 tumor cells = assay: Minimum active dose and cytopathic effect in HeLa-2 cell culture; assay type: cell-based; conditions: minimum amount causing degeneration of 90-95% of the cells; medium 199; monitored 5 days
Experimental: Determination of the anticancer activity of MATR in the cell culture was performed in a HeLa-2 cell culture. The different amount of MATR from 2 to 12 μg/ml of medium was added to medium 199. (see table 1). For the control a culture was without MATR. Cell cultures were monitored for 5 days with daily viewing. The minimum active dose (MAD) of MATR was considered to be its minimum amount, which caused degeneration of 90-95% of the cells (Table 2)

[1] = Toxic dose LD50 and lethal dose LD100; assay type: in vivo
Experimental: The compositions (MATR and Taxotere) were administered intraperitoneally three times with an interval of two hours in 0.5 ml. For MATR injection aqueous solution was used. The total doses of the compositions were 34.0, 68.0, 84.0, 102.0 and 136 mg/kg. The number of dead animals in each group was confirmed every 24-48 hours. The calculation of the toxic dose, LD50, was carried out according to the protocol. The lethal dose, […], was determined experimentally.

Schwez leukemia = assay: Antitumor activity on Shvets leukemia; assay type: in vivo, Outbred white rats; conditions: injected dose 9.1*3 = 27.3 mg/kg intraperitoneal

Structure (SMILES): CC(C)(CO)[C@@H](O)C(=O)NCCCO [DP, Dexpanthenol]
- Wound Area (S) during the observation (skin wounds; 1-3 days): 4.1 ± 1.0 cm2
- Wound Area (S) during the observation (skin wounds; 3-6 days): 3.2 ± 0.3 cm2
- Wound Area (S) during the observation (skin wounds; 6-9 days): 2.4 ± 0.3 cm2
- Wound Area (S) during the observation (skin wounds; 9-11 days): 1.0 ± 0.3 cm2
- Wound Area (S) during the observation (skin wounds; 11-13 days): 0.3 ± 0.1 cm2

Structure (SMILES): CC(=O)O[C@@]12CO[C@@H]1C[C@H](O)[C@@]1(C)C(=O)[C@H](O)C3=C(C)[C@@H](OC(=O)[C@H](O)[C@@H](NC(=O)OC(C)(C)C)c4ccccc4)C[C@@](O)([C@@H](OC(=O)c4ccccc4)[C@H]21)C3(C)C [Taxotere]
- MAD (minimum active dose) (HeLa-2 tumor cells): 10 µg/mL
- LD50 ([1]; in vivo, intraperitoneal): 120 mg/kg
- toxicity of the control compound (dose in brackets) ([1]; intraperitoneally three times with an interval of two hours): 120 mg/kg
- Tumor volume (Schwez leukemia): 0.73 cm3
